Entries after “also recorded” stand apart in the source; their conditions may differ.
System: E-selectin-expressing CHO cells
Experiment: Static adhesion of E-selectin-expressing CHO cells to gangliosides coated on polystyrene beads affixed to glass slides
Format: cell-based, Chinese hamster
Details: static conditions, ganglioside coated on polystyrene beads affixed on glass slides
Method: Polystyrene beads (1 μm diameter) were spread and affixed to glass microscope slides as described in Materials & Methods, added with 100 ng of poly-LacNac ganglioside dissolved in isopropanol-hexane-water (50:45:10), allowed to dry for 1 hr, and immersed in PBS containing 2% BSA. The slides were placed in Petri dishes and overlaid with RPMI medium containing E-selectin-expressing CHO cells (1×10^5 /cells mL). After 10 min incubation, slides were washed with PBS and total numbers of cells adhered on beads were counted. Each point represents one experiment. Horizontal lines indicate arithmetic means.
Gangliosides coated on polystyrene beads affixed on glass slides as described above and placed in petri dishes were incubated with E-selectin-expressing CHO cells in 1% FCS-RPMI medium. After 30 min, slides were washed 3 times with PBS, and numbers of adherent cells were counted under a microscope.
Polystyrene latex beads were affixed on glass microscope slides, added with 1 nmol of ganglioside fraction dissolved in isopropanol-hexane-water (50:45:10), allowed to dry for 1 hr, and then immersed in PBS(+) containing 1% bovine serum albumin. The slides were placed in Petri dishes containing permanently E-selectin-expressing CHO cells (1×10^5) in RPMI medium. After 30 min. incubation, slides were washed with PBS and total numbers of cells adhered on the affixed beads were counted. Sdiy^2 is sialyl-Le^x -Le^x (VI^3 NeuAcV^3 FucIII^3 FucnLc6 Cer).
Static adhesion assay using polystyrene latex beads: In order to observe static adhesion with the same matrix used for dynamic adhesion assay, the following procedure was used. Polystyrene latex beads of 1 μm or 4 μm diameter (IDC Spheres™; IDC, Portland, Oreg.), affixed to objective microscope slides, were used as carriers of poly-LacNAc GSLs. 30 μL of the 4 μm diameter bead suspension (containing 2×10^9beads/mL) or 60 μL of 1 μm bead suspension (containing 1×10^11 beads/mL) were placed in Eppendorf tubes and washed with absolute ethanol 3×. Sedimented 4 μm beads were suspended in […] ethanol, and sedimented 1 μm beads were suspended in 2 mL ethanol. 1 μL aliquots of these suspensions were placed on freshly opened microscope slides (Labcraft Superfrost® Plus, Curtin Matheson Scientific, Houston, Tex.). Beads were distributed homogeneously on the glass surface within a circular spot with diameter ≈1 cm. Slides were heated at 150° C. for 50 sec, which caused the beads to adhere strongly to the surface such that they could not be washed off by water stream at various velocities. Gangliosides dissolved in isopropanol-hexane-water at the same molar concentration were applied to latex beads affixed to the slides; namely, 1 μL aliquots containing 50-100 ng ganglioside were placed on the center of the circular spot. The ganglioside thus became affixed to the bead surface. Plates were immersed in 3% BSA in PBS for 1 hr at room temp, and washed 3× with PBS containing Ca^2+ /Mg^2+.
Plates were overlaid with 5×10^5 CHO cells freshly harvested and suspended in RPMI culture medium for 15 min without moving. Washing with RPMI 3× was usually sufficient to eliminate non-adherent cells from beads. However, careful microscopic examination had to be repeated until the cells placed on control polystyrene beads were washed out. Plates were then fixed with 1% glutaraldehyde in PBS and number of cells adhered to the layer of poly-LacNAc ganglioside-coated beads were counted.

| Substance | adhesion of E-selectin-expressing CHO cells (number of cells adhered on beads) | also measured |
| --- | --- | --- |
| VIII^3 NeuAcIII^3 FucnLc8 Cer [Fr. 10-2] | much weaker adhesion than Fr. 13-1 or Fr. 14 |  |
| VIII^3 NeuAcV^3 FucnLc8 Cer [Fr. 10-1] | much weaker adhesion than Fr. 13-1 or Fr. 14 | adhesion of E-selectin-expressing CHO cells (number of cells adhered on beads) (listed as Str. 4): do not show appreciable adhesion |
| VI^3 NeuAcV^3 FucIII^3 FucnLc6 Cer [SLe^x -Le^x, reference compound] | greatest cell adhesion; also recorded: highest adhesion; also recorded: slightly higher adhesion than Fr. 13-1; also recorded: highest binding; also recorded: higher number of E-selectin-expressing cells adhered | adhesion of E-selectin-expressing CHO cells (number of cells adhered on beads) (listed as Str. 3): much higher number of cells bound; also recorded: much higher adhesion than myelorollin |
| VI^3 NeuAcnLc6 Cer [Fr. 7] | no adhesion | adhesion of E-selectin-expressing CHO cells (number of cells adhered on beads) (listed as Str. 1): did not bind |
| X^3 NeuAcVII^3 FucV^3 FucnLc10 Cer [Fr. 13-1] | less than numbers binding to Str. 3 |  |
| X^3 NeuAcVII^3 FucnLc10 Cer [Fr. 12-2] | much weaker adhesion than Fr. 13-1 or Fr. 14 | adhesion of E-selectin-expressing CHO cells (number of cells adhered on beads) (listed as Str. 6): do not show appreciable adhesion |
